Experimental data: patent US20100074955A1, “Combination of NMDA-Receptor Ligand and a Compound With 5-HT6 Receptor Affinity” (LABORATORIOS DEL DR. ESTEVE, S.A., priority 2006, published 2010)

Tested on: adult male Lister Hooded rats
Experiment: Test of novel object discrimination in rats
Format: in vivo, rat
Details: memantine alone 5, 10, 15 and 20 mg/kg i.p. vs vehicle, 20 minutes before trial, 4 hour inter-trial interval, FIG. 1
Experimental: Adult male Lister Hooded rats (Charles River, UK) weighing 200-350 g at the start of the experiment were housed in groups of four on a 12:12 h light:dark cycle (lights on at 07:00 h). Food and water were available ad libitum throughout the study, and the room temperature (21±2° C.) and relative humidity (45-65%) were kept constant. In one experiment, rats received i.p. injections (2 ml/kg, −20 minutes prior to the familiarisation trial) of memantine (n=12) at 5, 10, 15 and 20 mg/kg compared with vehicle (0.5% methylcellulose in saline, 2 ml/kg), such that all rats received all doses of the compound in a random order with each behavioural test occurring at seven day intervals.
In the combination study, a group of rats (n=12 each) received injection of a sub-effective dose of compound 841 (1 mg/kg i.p.) or vehicle (0.5% methylcellulose in saline, 2 ml/kg), either alone or combined with memantine (5 mg/kg). Each drug combination was administered to all rats in the group over a period of 4 weeks in a random order using a seven day behavioural test interval. […]

## CC12CC3CC(C)(C1)CC(N)(C3)C2 [memantine, 1-amino-3,5-dimethyladamantane]
  discrimination of a novel object against a familiar object (time spent exploring each object): high amounts of said compound are necessary for rats to discriminate a novel object against a familiar object
